According to patent US11000033B2, “Ketone or oxime compound, and herbicide” (NISSAN CHEMICAL CORPORATION, priority 2014, dated 2021):

Assays:
Type in all cases: in vivo
Avena fatua [1] = assay: Test Example 4: herbicidal effect by soil treatment (symbol I)
Summary of the method: (§1)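 Seeds were sown in sterilized diluvial soil, covered with about 1.5 cm of soil, and the soil surface was sprayed with a water-diluted emulsion of the compound at a predetermined rate. Plants grew in a greenhouse at 25° C. to 30° C.; effects were scored visually 3 weeks after application.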

Abutilon theophrasti [2] = assay: Test Example 4: herbicidal effect by soil treatment (symbol M)
Summary of the method: as §1

[3] = test system: directly sowed rice plant; assay: Test Example 3: effect on crop by foliage application, Wagner pot (symbol b); conditions: application herbicide amount 320 g/ha
Summary of the method: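 Steps: fill a 1/10000-are Wagner pot with alluvial soil; add water and mix to submerge at 0.1–0.5 cm depth; sow rice plus Echinochloa crus-galli var. crus-galli, Leptochloa chinensis and Cyperus difformis; grow in a 25–30 °C greenhouse.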

wheat = assay: Test Example 5: effect on crop by foliage application, plastic box (symbol e); conditions: 320 g/ha, 3 weeks after application
Summary of the method: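 Foliage-application test plants come from spot sowing in sterilized diluvial soil under a soil layer of about 1.5 cm, grown at 25° C. to 30° C. in a greenhouse.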

Abutilon theophrasti [4] = assay: Test Example 5: herbicidal effect by foliage application, plastic box (symbol M); conditions: 320 g/ha, 3 weeks after application
Summary of the method: (§2)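 Emulsion formulation, diluted with water to the intended rate, was applied uniformly to leaves by small sprayer. Recipients were 14-day greenhouse-grown seedlings (25° C. to 30° C.). Assessment followed at 3 weeks.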

Avena fatua [5] = assay: Test Example 5: herbicidal effect by foliage application, plastic box (symbol I); conditions: 320 g/ha, 3 weeks after application
Summary of the method: as §2

Digitaria ciliaris = assay: Test Example 4: herbicidal effect by soil treatment (symbol F)
Summary of the method: as §1

Stellaria media = assay: Test Example 4: herbicidal effect by soil treatment (symbol P)
Summary of the method: as §1

Scirpus juncoides = assay: Test Example 2: herbicidal activity, application during weed generation in submerged conditions (symbol B); conditions: Table 23; application herbicide amount 320 g/ha; grade 0-5 by criteria of Test Example 1
Summary of the method: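 Compound was applied as a water-diluted emulsion into the standing water of flooded pots (4 cm) once co-sown weeds reached one to two leaves. Greenhouse temperature was 25° C. to 30° C., soil was alluvial, and each species was rated visually after 3 weeks.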

beet = assay: Test Example 4: effect on crop by soil treatment (symbol f)
Summary of the method: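 Sterilized diluvial soil, spot sowing, ~1.5 cm soil cover; greenhouse 25–30° C.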

Lolium multiflorum Lam. = assay: Test Example 5: herbicidal effect by foliage application, plastic box (symbol K); conditions: 320 g/ha, 3 weeks after application
Summary of the method: as §2

corn = assay: Test Example 4: effect on crop by soil treatment (symbol c)
Summary of the method: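 Crop seed is sown in spots together with several weed species in a box of sterilized diluvial soil. It is covered by about 1.5 cm of soil and kept in a greenhouse held between 25° C. and 30° C.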

Leptochloa chinensis = assay: Test Example 3: herbicidal effect by foliage application, Wagner pot (symbol D); conditions: application herbicide amount 320 g/ha
Summary of the method: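 In a shallow-flooded alluvial soil system held at 25–30 °C, plants including rice grew for 14 days and were then sprayed over the foliage with emulsion diluted to a fixed herbicide amount. Visual rating followed at 3 weeks.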

[6] = application herbicide amount 320 g/ha

| Compound | I (Avena fatua) herbicidal effect grade (Avena fatua [1]; [6]) | M (Abutilon theophrasti) herbicidal effect grade (Abutilon theophrasti [2]; [6]) | effect on crop b (directly sowed rice plant), grade 0-5 [3] | e: wheat, effect on crop grade (wheat) | M: Abutilon theophrasti, herbicidal effect grade (Abutilon theophrasti [4]) | I: Avena fatua, herbicidal effect grade (Avena fatua [5]) | F (Digitaria ciliaris) herbicidal effect grade (Digitaria ciliaris; [6]) | P (Stellaria media) herbicidal effect grade (Stellaria media; [6]) | Herbicidal effect grade, B: Scirpus juncoides (Scirpus juncoides) | f (beet) effect on crop grade (beet; [6]) | K: Lolium multiflorum Lam., herbicidal effect grade (Lolium multiflorum Lam.) | c (corn) effect on crop grade (corn; [6]) | herbicidal effect on D (Leptochloa chinensis), grade 0-5 (Leptochloa chinensis) | further results |
| --- | --- | --- | --- | --- | --- | --- | --- | --- | --- | --- | --- | --- | --- | --- |
| CON=C(C)CC1CC(OC(=O)COc2ccc(OC)cc2)=C(c2c(C)cc(C)cc2C)C1=O (centres unmarked) [1-069] | 3 (Herbicidal ratio of 40% or higher and lower than 70%) | 4 (Herbicidal ratio of 70% or higher and lower than 90%) | 5 (Herbicidal ratio of 90% or more (almost completely withered)) | 5 (Herbicidal ratio of 90% or more (almost completely withered)) | 5 (Herbicidal ratio of 90% or more (almost completely withered)) | 5 (Herbicidal ratio of 90% or more (almost completely withered)) | 5 (Herbicidal ratio of 90% or more (almost completely withered)) | 0 (Herbicidal ratio of 5% or lower (almost no effect)) | 4 (Herbicidal ratio of 70% or higher and lower than 90%) | 0 (Herbicidal ratio of 5% or lower (almost no effect)) | 5 (Herbicidal ratio of 90% or more (almost completely withered)) | 5 (Herbicidal ratio of 90% or more (almost completely withered)) | 5 (Herbicidal ratio of 90% or more (almost completely withered)) |  |
| CON=C(C)C(c1ccc(F)cc1)C1CC(O)=C(c2c(C)cc(C)cc2C)C1=O (centres unmarked) [1-049] | 0 (Herbicidal ratio of 5% or lower (almost no effect)) | 0 (Herbicidal ratio of 5% or lower (almost no effect)) | 0 (Herbicidal ratio of 5% or lower (almost no effect)) | 0 (Herbicidal ratio of 5% or lower (almost no effect)) | 0 (Herbicidal ratio of 5% or lower (almost no effect)) | 0 (Herbicidal ratio of 5% or lower (almost no effect)) | 0 (Herbicidal ratio of 5% or lower (almost no effect)) | 0 (Herbicidal ratio of 5% or lower (almost no effect)) | 0 (Herbicidal ratio of 5% or lower (almost no effect)) | 0 (Herbicidal ratio of 5% or lower (almost no effect)) | 0 (Herbicidal ratio of 5% or lower (almost no effect)) | 0 (Herbicidal ratio of 5% or lower (almost no effect)) | 0 (Herbicidal ratio of 5% or lower (almost no effect)) |  |
| CC(CC1CC(O)=C(c2c(C)cc(Br)cc2C)C1=O)=NOCC(=O)N(C)C (mixture of isomers) [9-029] |  |  |  | 4 (Herbicidal ratio of 70% or higher and lower than 90%) | 0 (Herbicidal ratio of 5% or lower (almost no effect)) | 5 (Herbicidal ratio of 90% or more (almost completely withered)) |  |  | 0 (Herbicidal ratio of 5% or lower (almost no effect)) |  | 5 (Herbicidal ratio of 90% or more (almost completely withered)) |  |  | Herbicidal effect grade, I: Avena fatua (Avena fatua [1]; [6]): 0 (Herbicidal ratio of 5% or lower (almost no effect)); Herbicidal effect grade, M: Abutilon theophrasti (Abutilon theophrasti [2]; [6]): 0 (Herbicidal ratio of 5% or lower (almost no effect)); b (directly sowed rice plant) effect on crop grade ([3]; Table 24): 3 (Herbicidal ratio of 40% or higher and lower than 70%); Herbicidal effect grade, F: Digitaria ciliaris (Digitaria ciliaris; [6]): 3 (Herbicidal ratio of 40% or higher and lower than 70%); Herbicidal effect grade, P: Stellaria media (Stellaria media; [6]): 0 (Herbicidal ratio of 5% or lower (almost no effect)); Effect on crop grade, f: beet (beet; [6]): 0 (Herbicidal ratio of 5% or lower (almost no effect)); Effect on crop grade, c: corn (corn; [6]): 0 (Herbicidal ratio of 5% or lower (almost no effect)); D (Leptochloa chinensis) herbicidal effect grade (Leptochloa chinensis; Table 24): 4 (Herbicidal ratio of 70% or higher and lower than 90%) |
| CON=C(C)CC1CC(OC(=O)C(C)(C)Oc2cccc(Cl)c2)=C(c2c(C)cc(C)cc2C)C1=O (centres unmarked) [1-065] | 3 (Herbicidal ratio of 40% or higher and lower than 70%) | 4 (Herbicidal ratio of 70% or higher and lower than 90%) | 5 (Herbicidal ratio of 90% or more (almost completely withered)) | 5 (Herbicidal ratio of 90% or more (almost completely withered)) | 4 (Herbicidal ratio of 70% or higher and lower than 90%) | 5 (Herbicidal ratio of 90% or more (almost completely withered)) | 5 (Herbicidal ratio of 90% or more (almost completely withered)) | 0 (Herbicidal ratio of 5% or lower (almost no effect)) | 5 (Herbicidal ratio of 90% or more (almost completely withered)) | 0 (Herbicidal ratio of 5% or lower (almost no effect)) | 5 (Herbicidal ratio of 90% or more (almost completely withered)) | 5 (Herbicidal ratio of 90% or more (almost completely withered)) | 5 (Herbicidal ratio of 90% or more (almost completely withered)) |  |
| CON=C(C)CC1CC(OC(=O)C2=C(Br)CCC2)=C(c2c(C)cc(C)cc2C)C1=O (centres unmarked) [1-089] |  |  | 5 (Herbicidal ratio of 90% or more (almost completely withered)) |  |  |  |  |  | 4 (Herbicidal ratio of 70% or higher and lower than 90%) |  |  |  | 5 (Herbicidal ratio of 90% or more (almost completely withered)) | I: Avena fatua, herbicidal effect grade (Avena fatua [1]; 320 g/ha): 2 (Herbicidal ratio of 20% or higher and lower than 40%); M: Abutilon theophrasti, herbicidal effect grade (Abutilon theophrasti [2]; 320 g/ha): 2 (Herbicidal ratio of 20% or higher and lower than 40%); e: wheat, effect on crop (criteria 0-5) (wheat): 5 (Herbicidal ratio of 90% or more (almost completely withered)); M: Abutilon theophrasti, herbicidal effect (criteria 0-5) (Abutilon theophrasti [4]): 4 (Herbicidal ratio of 70% or higher and lower than 90%); I: Avena fatua, herbicidal effect (criteria 0-5) (Avena fatua [5]): 5 (Herbicidal ratio of 90% or more (almost completely withered)); F: Digitaria ciliaris, herbicidal effect grade (Digitaria ciliaris; 320 g/ha): 5 (Herbicidal ratio of 90% or more (almost completely withered)); P: Stellaria media, herbicidal effect grade (Stellaria media; 320 g/ha): 0 (Herbicidal ratio of 5% or lower (almost no effect)); f: beet, effect grade on crop (beet; 320 g/ha): 0 (Herbicidal ratio of 5% or lower (almost no effect)); K: Lolium multiflorum Lam., herbicidal effect (criteria 0-5) (Lolium multiflorum Lam.): 5 (Herbicidal ratio of 90% or more (almost completely withered)); c: corn, effect grade on crop (corn; 320 g/ha): 5 (Herbicidal ratio of 90% or more (almost completely withered)) |
